Holding throughout (parameters): scale not given: the % may be the effect or the level left
Assay [1] has as its target Calcium/calmodulin-dependent protein kinase type II subunit delta (Homo sapiens) (UniProt Q13557). The assay can be described thus: Inhibition of human CAMK2d assessed as enzyme activity at 1 uM using KKLNRTLSFAEPG as substrate preincubated for 20 mins followed by [gamma-33P]-ATP addition and measured after 120 mins by radiometric Hot-SpotSM Kinase assay relative to control.

The target in assay [2] is CDK18/Cyclin Y (Homo sapiens) (UniProt Q07002+Q8ND76). The assay can be described thus: Inhibition of human CDK18/cyclin Y assessed as enzyme activity at 1 uM using RB Protein as substrate preincubated for 20 mins followed by [gamma-33P]-ATP addition and measured after 120 mins by radiometric Hot-SpotSM Kinase assay relative to control. Type of assay: protein-complex assay.

In assay [3] the target is T1, Casein kinase I isoform alpha-like (Homo sapiens) (UniProt Q8N752).
T1 sequence (whole entry): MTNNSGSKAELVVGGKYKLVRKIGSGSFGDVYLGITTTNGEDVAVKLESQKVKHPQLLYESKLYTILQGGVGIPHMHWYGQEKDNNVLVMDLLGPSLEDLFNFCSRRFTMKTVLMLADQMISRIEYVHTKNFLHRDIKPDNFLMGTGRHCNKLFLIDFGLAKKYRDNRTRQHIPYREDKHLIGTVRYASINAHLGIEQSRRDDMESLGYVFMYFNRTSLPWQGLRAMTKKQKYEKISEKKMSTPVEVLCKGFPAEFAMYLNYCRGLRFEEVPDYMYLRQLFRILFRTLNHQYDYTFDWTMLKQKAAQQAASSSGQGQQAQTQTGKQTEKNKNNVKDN
The assay can be described thus: Inhibition of human CK1a1L assessed as enzyme activity at 1 uM using KRRRAL[pS]VASLPGL as substrate preincubated for 20 mins followed by [gamma-33P]-ATP addition and measured after 120 mins by radiometric Hot-SpotSM Kinase assay relative to control.

For assay [4], the target named is T2, G protein-coupled receptor kinase 3 (Homo sapiens) (UniProt P35626).
T2 sequence (whole entry): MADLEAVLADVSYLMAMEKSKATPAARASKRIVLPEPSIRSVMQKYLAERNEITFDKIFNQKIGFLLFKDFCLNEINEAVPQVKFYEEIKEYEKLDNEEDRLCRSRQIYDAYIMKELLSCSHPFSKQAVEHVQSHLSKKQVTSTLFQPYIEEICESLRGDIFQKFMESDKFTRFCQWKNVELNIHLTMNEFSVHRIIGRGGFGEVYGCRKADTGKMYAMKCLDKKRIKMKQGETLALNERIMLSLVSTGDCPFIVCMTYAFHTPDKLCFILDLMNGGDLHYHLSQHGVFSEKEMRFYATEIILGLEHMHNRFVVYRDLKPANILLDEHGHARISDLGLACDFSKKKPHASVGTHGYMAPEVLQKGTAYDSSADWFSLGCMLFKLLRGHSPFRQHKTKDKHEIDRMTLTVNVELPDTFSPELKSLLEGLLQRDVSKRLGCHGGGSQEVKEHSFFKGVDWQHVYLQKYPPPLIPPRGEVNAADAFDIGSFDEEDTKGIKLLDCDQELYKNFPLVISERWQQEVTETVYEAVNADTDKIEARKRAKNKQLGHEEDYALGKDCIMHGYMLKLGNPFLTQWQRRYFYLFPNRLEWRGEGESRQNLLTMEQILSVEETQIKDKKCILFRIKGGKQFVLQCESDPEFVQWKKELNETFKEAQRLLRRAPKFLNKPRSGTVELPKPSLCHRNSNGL
The assay can be described thus: Inhibition of human GRK3 assessed as enzyme activity at 1 uM using casein as substrate preincubated for 20 mins followed by [gamma-33P]-ATP addition and measured after 120 mins by radiometric Hot-SpotSM Kinase assay relative to control.

The target of assay [5] is T3, Myosin light chain kinase family member 4 (Homo sapiens) (UniProt Q86YV6).
T3 sequence (whole entry): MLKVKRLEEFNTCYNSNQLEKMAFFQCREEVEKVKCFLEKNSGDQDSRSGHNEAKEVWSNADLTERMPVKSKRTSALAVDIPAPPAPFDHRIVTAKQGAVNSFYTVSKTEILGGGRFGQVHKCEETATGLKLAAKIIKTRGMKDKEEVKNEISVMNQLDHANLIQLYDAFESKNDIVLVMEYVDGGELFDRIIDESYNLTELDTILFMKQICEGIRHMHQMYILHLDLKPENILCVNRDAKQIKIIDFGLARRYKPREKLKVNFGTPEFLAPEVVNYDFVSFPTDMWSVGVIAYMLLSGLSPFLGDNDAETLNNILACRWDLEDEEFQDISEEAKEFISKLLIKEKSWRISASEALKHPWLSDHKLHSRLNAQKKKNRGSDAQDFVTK
The assay can be described thus: Inhibition of human MYLK4 assessed as enzyme activity at 1 uM using KKRPQRRYSNVF as substrate preincubated for 20 mins followed by [gamma-33P]-ATP addition and measured after 120 mins by radiometric Hot-SpotSM Kinase assay relative to control.

Assay [6] has as its target T4, Lymphokine-activated killer T-cell-originated protein kinase (Homo sapiens) (UniProt Q96KB5).
T4 sequence (whole entry): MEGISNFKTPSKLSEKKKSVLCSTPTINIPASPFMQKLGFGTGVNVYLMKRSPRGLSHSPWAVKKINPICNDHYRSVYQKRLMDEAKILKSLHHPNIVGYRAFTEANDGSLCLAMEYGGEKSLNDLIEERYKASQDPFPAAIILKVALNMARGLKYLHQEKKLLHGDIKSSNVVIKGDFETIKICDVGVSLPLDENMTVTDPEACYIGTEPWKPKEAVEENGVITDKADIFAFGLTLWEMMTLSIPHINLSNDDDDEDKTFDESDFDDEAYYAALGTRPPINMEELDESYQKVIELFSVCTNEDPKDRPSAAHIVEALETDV
The assay can be described thus: Inhibition of human PBK assessed as enzyme activity at 1 uM using myelin basic protein as substrate preincubated for 20 mins followed by [gamma-33P]-ATP addition and measured after 120 mins by radiometric Hot-SpotSM Kinase assay relative to control.

Assay [7] deals with Platelet-derived growth factor receptor beta (Homo sapiens) (UniProt P09619). The assay can be described thus: Inhibition of human PDGFRb assessed as enzyme activity at 1 uM using poly[Glu:Tyr] (4:1) as substrate preincubated for 20 mins followed by [gamma-33P]-ATP addition and measured after 120 mins by radiometric Hot-SpotSM Kinase assay relative to control.
Chain of Platelet-derived growth factor receptor beta (Homo sapiens) (P09619 whole entry): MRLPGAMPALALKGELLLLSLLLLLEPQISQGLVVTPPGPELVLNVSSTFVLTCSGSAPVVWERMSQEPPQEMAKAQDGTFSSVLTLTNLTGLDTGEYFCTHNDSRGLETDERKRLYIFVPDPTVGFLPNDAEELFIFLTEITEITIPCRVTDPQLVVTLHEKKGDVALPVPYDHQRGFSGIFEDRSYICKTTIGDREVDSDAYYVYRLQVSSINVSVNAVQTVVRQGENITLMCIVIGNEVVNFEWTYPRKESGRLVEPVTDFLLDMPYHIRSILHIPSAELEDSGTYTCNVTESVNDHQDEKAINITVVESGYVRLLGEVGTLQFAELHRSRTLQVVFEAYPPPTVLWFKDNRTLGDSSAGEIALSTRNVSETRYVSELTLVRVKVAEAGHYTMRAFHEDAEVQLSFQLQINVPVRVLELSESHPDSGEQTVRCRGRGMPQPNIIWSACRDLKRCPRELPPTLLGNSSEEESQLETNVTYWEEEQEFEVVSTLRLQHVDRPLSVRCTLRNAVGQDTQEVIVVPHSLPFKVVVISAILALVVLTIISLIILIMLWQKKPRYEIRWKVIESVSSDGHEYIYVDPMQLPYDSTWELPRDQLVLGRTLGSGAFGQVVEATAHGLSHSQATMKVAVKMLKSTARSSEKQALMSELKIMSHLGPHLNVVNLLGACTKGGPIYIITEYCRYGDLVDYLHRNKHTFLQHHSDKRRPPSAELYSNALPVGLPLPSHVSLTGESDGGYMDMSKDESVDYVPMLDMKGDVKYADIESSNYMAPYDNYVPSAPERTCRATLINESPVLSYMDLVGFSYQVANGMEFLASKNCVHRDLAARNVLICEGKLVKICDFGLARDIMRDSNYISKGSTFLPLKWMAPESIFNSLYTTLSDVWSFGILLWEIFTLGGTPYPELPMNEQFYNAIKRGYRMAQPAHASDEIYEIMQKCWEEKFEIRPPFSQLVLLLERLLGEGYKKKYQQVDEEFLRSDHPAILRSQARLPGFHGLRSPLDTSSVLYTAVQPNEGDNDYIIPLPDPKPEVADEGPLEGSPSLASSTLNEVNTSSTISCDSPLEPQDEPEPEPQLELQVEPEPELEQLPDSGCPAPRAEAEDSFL
The target in assay [8] is Protein kinase C beta type (Homo sapiens) (UniProt P05771). The assay can be described thus: Inhibition of human PKCb2 assessed as enzyme activity at 1 uM using ERMRPRKRQGSVRRRV as substrate preincubated for 20 mins followed by [gamma-33P]-ATP addition and measured after 120 mins by radiometric Hot-SpotSM Kinase assay relative to control.
Chain of Protein kinase C beta type (Homo sapiens) (P05771 2-671 limits assumed): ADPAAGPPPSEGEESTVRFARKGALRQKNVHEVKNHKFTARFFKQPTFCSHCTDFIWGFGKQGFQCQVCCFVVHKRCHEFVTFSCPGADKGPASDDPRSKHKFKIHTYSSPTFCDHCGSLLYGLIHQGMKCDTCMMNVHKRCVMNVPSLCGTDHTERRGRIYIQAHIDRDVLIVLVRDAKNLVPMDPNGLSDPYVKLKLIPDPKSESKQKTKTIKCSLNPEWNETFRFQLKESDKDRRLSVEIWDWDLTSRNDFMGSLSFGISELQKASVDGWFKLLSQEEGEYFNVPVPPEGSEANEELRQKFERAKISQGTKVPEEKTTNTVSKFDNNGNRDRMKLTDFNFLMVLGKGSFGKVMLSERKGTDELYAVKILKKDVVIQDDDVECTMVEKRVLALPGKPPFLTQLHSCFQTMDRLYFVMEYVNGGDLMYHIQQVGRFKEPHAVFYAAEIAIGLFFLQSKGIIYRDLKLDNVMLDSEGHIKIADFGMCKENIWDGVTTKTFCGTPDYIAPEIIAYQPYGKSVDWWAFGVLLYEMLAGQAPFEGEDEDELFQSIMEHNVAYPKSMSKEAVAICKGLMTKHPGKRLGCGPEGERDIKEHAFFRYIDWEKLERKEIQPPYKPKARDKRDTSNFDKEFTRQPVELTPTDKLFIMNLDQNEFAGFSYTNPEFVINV
Assay [9] concerns the target Receptor-interacting serine/threonine-protein kinase 3 (Homo sapiens) (UniProt Q9Y572). The assay can be described thus: Inhibition of human RIPK3 assessed as enzyme activity at 1 uM using myelin basic protein as substrate preincubated for 20 mins followed by [gamma-33P]-ATP addition and measured after 120 mins by radiometric Hot-SpotSM Kinase assay relative to control.

For assay [10], the target named is Ribosomal protein S6 kinase alpha-2 (Homo sapiens) (UniProt Q15349). The assay can be described thus: Inhibition of human RSK3 assessed as enzyme activity at 1 uM using KKLNRTLSVA as substrate preincubated for 20 mins followed by [gamma-33P]-ATP addition and measured after 120 mins by radiometric Hot-SpotSM Kinase assay relative to control.
Chain of Ribosomal protein S6 kinase alpha-2 (Homo sapiens) (Q15349 whole entry): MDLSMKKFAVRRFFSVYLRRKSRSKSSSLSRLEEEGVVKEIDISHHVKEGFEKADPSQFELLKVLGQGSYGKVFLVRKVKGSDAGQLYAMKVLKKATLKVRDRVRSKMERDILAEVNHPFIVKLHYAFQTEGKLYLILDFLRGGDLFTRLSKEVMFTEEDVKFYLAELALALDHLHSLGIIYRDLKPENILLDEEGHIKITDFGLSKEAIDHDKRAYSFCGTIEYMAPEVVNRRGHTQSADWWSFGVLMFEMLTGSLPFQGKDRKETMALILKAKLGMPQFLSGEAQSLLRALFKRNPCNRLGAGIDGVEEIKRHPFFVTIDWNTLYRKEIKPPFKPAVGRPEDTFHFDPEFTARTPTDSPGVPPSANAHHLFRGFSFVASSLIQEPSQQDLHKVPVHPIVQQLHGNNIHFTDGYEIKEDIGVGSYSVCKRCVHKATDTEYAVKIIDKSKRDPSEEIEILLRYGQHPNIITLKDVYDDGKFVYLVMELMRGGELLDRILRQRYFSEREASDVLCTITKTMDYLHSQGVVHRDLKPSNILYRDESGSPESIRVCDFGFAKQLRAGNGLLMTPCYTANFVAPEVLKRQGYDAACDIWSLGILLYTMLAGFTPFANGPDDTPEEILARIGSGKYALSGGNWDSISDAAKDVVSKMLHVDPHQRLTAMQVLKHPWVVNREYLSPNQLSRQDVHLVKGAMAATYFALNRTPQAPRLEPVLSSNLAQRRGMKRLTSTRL

Chain of Receptor-interacting serine/threonine-protein kinase 3 (Homo sapiens) (Q9Y572 whole entry, looked up): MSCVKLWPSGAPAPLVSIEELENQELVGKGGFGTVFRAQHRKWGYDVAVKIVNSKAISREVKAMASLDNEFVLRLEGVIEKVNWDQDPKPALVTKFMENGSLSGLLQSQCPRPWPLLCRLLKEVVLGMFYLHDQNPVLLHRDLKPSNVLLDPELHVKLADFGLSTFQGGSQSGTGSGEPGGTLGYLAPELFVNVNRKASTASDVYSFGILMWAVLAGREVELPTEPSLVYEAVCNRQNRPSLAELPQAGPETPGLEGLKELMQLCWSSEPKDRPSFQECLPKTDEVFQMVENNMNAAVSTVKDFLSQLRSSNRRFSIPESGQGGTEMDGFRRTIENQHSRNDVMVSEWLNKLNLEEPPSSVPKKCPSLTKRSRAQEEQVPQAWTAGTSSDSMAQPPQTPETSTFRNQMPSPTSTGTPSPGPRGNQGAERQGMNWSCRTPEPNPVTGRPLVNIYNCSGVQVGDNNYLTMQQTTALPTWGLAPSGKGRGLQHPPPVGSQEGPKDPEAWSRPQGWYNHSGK
Chain of Calcium/calmodulin-dependent protein kinase type II subunit delta (Homo sapiens) (Q13557 whole entry): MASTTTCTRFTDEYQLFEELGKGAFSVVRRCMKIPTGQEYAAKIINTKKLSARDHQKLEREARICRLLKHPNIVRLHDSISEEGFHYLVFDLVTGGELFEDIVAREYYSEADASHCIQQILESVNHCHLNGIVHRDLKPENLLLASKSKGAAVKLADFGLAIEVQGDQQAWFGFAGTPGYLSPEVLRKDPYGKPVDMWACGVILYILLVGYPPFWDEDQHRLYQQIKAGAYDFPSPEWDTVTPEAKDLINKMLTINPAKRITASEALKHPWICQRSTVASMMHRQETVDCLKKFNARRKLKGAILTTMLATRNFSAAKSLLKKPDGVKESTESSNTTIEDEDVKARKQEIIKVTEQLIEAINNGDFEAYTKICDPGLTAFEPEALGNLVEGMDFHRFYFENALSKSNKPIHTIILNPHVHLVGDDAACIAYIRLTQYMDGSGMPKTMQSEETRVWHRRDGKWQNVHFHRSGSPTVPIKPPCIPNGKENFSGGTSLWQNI

In the case of `C[C@H](Nc1ncnc2nc[nH]c12)c1cc2cccc(Cl)c2c(=O)n1-c1ccccc1`, the Activity in [1] was found to be 104%; in assay [2], 100%; in [3] it was 99.5%; in assay [4] it was 91.5%; in assay [5], 93%; in [6] it was 102%. Besides, the Activity came out at 97.8% in assay [7], 93.9% in assay [8], 97.6% in [9] and 94.1% in assay [10].
With `CC[C@H](Nc1ncnc2[nH]cnc12)c1nc2cccc(F)c2c(=O)n1-c1ccccc1`, the Activity in assay [1] was found to be 107%; in [2], 85.7%; in [3], 101%; in assay [4], 95.3%; in assay [5] it was 90.9%; in assay [6] it was 105%. The Activity amounted to 102% in assay [7], 91% in assay [8], 102% in assay [9] and 98.3% in assay [10].
Consider `CC(C)Oc1ccc(-c2nn([C@@H](C)c3oc4ccc(F)cc4c(=O)c3-c3cccc(F)c3)c3ncnc(N)c23)cc1F` [UMBRALISIB], for which the Activity in [1] was 103%; in assay [2] it was 94.6%; in assay [3] it was 103%; in assay [4], 99.6%; in assay [5], 92.3%; in assay [6], 105%. Moreover, the Activity in [7] was determined as 104%; in [8], 91.3%; in [9], 107%; in [10], 101%.

Values taken from ChEMBL document CHEMBL5715954, “Silencing c-Myc translation as a therapeutic strategy through targeting PI3Kδ and CK1ε in hematological malignancies” (Blood, 2017).
